According to article PMC4105567, “Aurora Kinases as Druggable Targets in Pediatric Leukemia: Heterogeneity in Target Modulation Activities and Cytotoxicity by Diverse Novel Therapeutic Agents” (PLoS ONE, 2014):

Legend:
[1] = system: SEM B-ALL cell line; assay: Cytotoxicity assay, SEM; type: cell-based; details: Homo sapiens, 96 h, four days in culture, Alamar blue assay or automated microscopy, ± SD, three experiments
In short: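 Read-out: percent survival relative to DMSO wells, from Alamar blue absorbance at 570–620 nm or automated bright-field counts of viable cells. Exposure lasted 4 days to Aurora kinase inhibitors at 1×10^−6 to 10 µM final, 1×10^4 cells/well, in triplicate.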

[2] = system: phospho-Aurora-A/B/C; assay: Western blot of Aurora kinase phosphorylation in leukemia cell lines; type: cell-based, human
Experimental: (§1) Following desired experimental conditions, cells were harvested and centrifuged at 1200 rpm at 4°C for 5 minutes. After removal of supernatant, cells were washed in cold PBS. Following an additional centrifugation step, supernatant was removed and the pellet was re-suspended in radioimmunoprecipitation assay (RIPA) buffer (50 mM Tris-HCl (pH 8), 150 mM NaCl, 1% NP-40, 0.5% sodium deoxycholate; 0.1% sodium dodecyl sulphate (SDS)) supplemented with 1% phosphatase inhibitor (Sigma-Aldrich), 1% protease inhibitor (Sigma-Aldrich) and 1% sodium orthovanadate (Alfa Aesar, Ward Hill, Massachusetts). Samples were transferred to Eppendorf tubes, left on ice for 10 minutes, vortexed and then centrifuged at 14 000 rpm for 10 minutes.
To begin, the protein content of the lysates was measured using the Bicinchoninic Acid (BCA) Protein Assay Kit (Pierce, Rockford, Illinois), which included a protein standard curve generated with bovine serum albumin. Appropriate volumes of samples and loading buffer (50 mM Tris-HCl (pH 6.8), 2% SDS, 10% glycerol, 1% β-mercaptoethanol, 12.5 mM EDTA, 0.02% bromophenol blue) were mixed, ensuring that equal amounts of protein were loaded (30 µg of protein per well). Samples were then resolved on SDS-PAGE using various percentages of acrylamide gels (8%–12%), depending on the proteins of interest. SDS-PAGE was run in SDS running buffer (25 mM Tris, 192 mM glycine, 0.1% SDS) and then transferred to nitrocellulose membranes in transfer buffer (48 mM Tris, 39 mM glycine, 20% (v/v) methanol) at 100 volts for 2 hours at 4°C. Immunoblots were then blocked in 5% skim milk in tris-buffered saline with 0.1% Tween-20 (TBS-T; 50 mM Tris-HCl, pH 7.5, 150 mM NaCl, 0.1% (v/v) Tween-20 (Sigma-Aldrich)) for 1 to 2 hours. Immunoblots were then incubated with selected primary antibodies diluted in TBS-T with 0.1% gelatin (Bio-Rad, Mississauga, Ontario) and 0.05% sodium azide (Sigma-Aldrich) overnight. Primary antibodies included: Aurora-A (Cell Signalling, Danvers, Massachusetts; 1∶1000), Aurora-B (Cell Signalling, 1∶1000), phospho-Aurora-A/B/C (Cell Signalling, 1∶1000), caspase 7 (Cell Signalling, 1∶1000), PARP (Cell Signalling, 1∶2000) and β-Actin (Sigma-Aldrich, 1∶10000). Following washes with TBT-T 4 times for 8 to 10 minutes, immunoblots were incubated with appropriate secondary antibodies conjugated to horseradish peroxidise (Sigma-Aldrich) diluted in TBS-T plus 5% skim milk at a ratio of 1∶5000 for 2 hours at room temperature. After an additional round of washes in TBS-T, immunoblots were exposed to combined enhanced chemiluminescence (ECL) reagents (Reagent 1: 100 mM Tris-HCl (pH 8.5), 5.4 mM hydrogen peroxide; Reagent 2: 100 mM Tris-HCl (pH 8.5), 2.5 mM luminol, 0.4 mM p-coumaric acid) for 1 minute and developed by exposure to X-ray film (Christie InnoMed, Montreal, Quebec).
Leukemia cells were plated in a 6 well plate (BD Biosciences) at a concentration of 1×10^6 cells per well in a volume of 500 µl of Opti-MEM supplemented with FBS and antibiotics. Next, Silencer Select Negative Control Number 1 siRNA (Invitrogen), Aurora kinase A siRNA (s196, Invitrogen) and Aurora kinase B siRNA (s17611, Invitrogen) were diluted in individual tubes (BD Biosciences) to a final concentration of 30 nM in 500 µl Opti-MEM without supplements. Following, HiPerfect Transfection Reagent (Qiagen, Toronto, Ontario) was added to the diluted siRNA at a ratio of 3∶100 and the samples were left at room temperature for 10 minutes to allow for the formation of transfection complexes. The transfection complexes were then added to the cells at a volume of 500 µl per well and the plates were placed in the incubator for 6 hours. After incubation, 1.4 ml of Opti-MEM plus supplements were added to each well, for a total volume 2.4 ml per well. The cells were returned to the incubator for an additional 48 or 72 hours and then processed for immunoblotting.

[3] = system: cleavage of PARP and caspase 7; assay: Western blot of apoptotic markers in leukemia cell lines; type: cell-based, human; details: 2, 4, 6, 12 and 24 hours, C1, SEM, KOPN8, TIB-202
Experimental: as §1
To begin, the protein content of the lysates was measured using the Bicinchoninic Acid (BCA) Protein Assay Kit (Pierce, Rockford, Illinois), which included a protein standard curve generated with bovine serum albumin. Appropriate volumes of samples and loading buffer (50 mM Tris-HCl (pH 6.8), 2% SDS, 10% glycerol, 1% β-mercaptoethanol, 12.5 mM EDTA, 0.02% bromophenol blue) were mixed, ensuring that equal amounts of protein were loaded (30 µg of protein per well). Samples were then resolved on SDS-PAGE using various percentages of acrylamide gels (8%–12%), depending on the proteins of interest. SDS-PAGE was run in SDS running buffer (25 mM Tris, 192 mM glycine, 0.1% SDS) and then transferred to nitrocellulose membranes in transfer buffer (48 mM Tris, 39 mM glycine, 20% (v/v) methanol) at 100 volts for 2 hours at 4°C. Immunoblots were then blocked in 5% skim milk in tris-buffered saline with 0.1% Tween-20 (TBS-T; 50 mM Tris-HCl, pH 7.5, 150 mM NaCl, 0.1% (v/v) Tween-20 (Sigma-Aldrich)) for 1 to 2 hours. Immunoblots were then incubated with selected primary antibodies diluted in TBS-T with 0.1% gelatin (Bio-Rad, Mississauga, Ontario) and 0.05% sodium azide (Sigma-Aldrich) overnight. […]

[4] = system: Aurora-A; set-up: method as in earlier work; details: literature values; ref [10],[22],[27],[40],[44]–[64] as listed per inhibitor in Table 1; read-out: Targets (IC50 Value): Aurora-A; cited from earlier work

| Compound | IC50 [1] | phosphorylation of Aurora-B, inhibitor alone ([2]; 0.1 µM for 12 hours, SEM and TIB-202, Lanes 3 and 6 of Figure 7) | phosphorylation of Aurora-A, time course ([2]; 0.1 µM, 2, 4, 6, 12 and 24 hours, C1, SEM, KOPN8, TIB-202) | phosphorylation of Aurora-B and Aurora-C, time course, C1 and TIB-202 ([2]; 0.1 µM, 2, 4, 6, 12 and 24 hours, C1 and TIB-202) | phosphorylation of Aurora-B, time course, SEM and KOPN8 ([2]; 0.1 µM, 2, 4, 6, 12 and 24 hours, SEM and KOPN8) | phosphorylation of Aurora-B and Aurora-C, inhibitor after Aurora-A siRNA ([2]; Aurora-A siRNA 60 hours, then 0.1 µM for 12 hours, SEM and TIB-202, Lane 5) | cleavage of PARP, time course ([3]; 0.1 µM) | cleavage of caspase 7, time course ([3]; 0.1 µM) | IC50 [4] | phosphorylation of Aurora kinases, inhibitor alone, TIB-202 ([2]; 1 µM for 12 h, TIB-202, Lanes 3 and 6 of Figure 8) | phosphorylation of Aurora-A, time course, C1 ([2]; 1 µM, 2, 4, 6, 12 and 24 hours, C1) | phosphorylation of Aurora-B and Aurora-C, time course ([2]; 1 µM, 2, 4, 6, 12 and 24 hours, C1, SEM, KOPN8, TIB-202) | phosphorylation of Aurora-A, time course, SEM, KOPN8, TIB-202 ([2]; 1 µM, 2, 4, 6, 12 and 24 hours, SEM, KOPN8, TIB-202) | phosphorylation of Aurora kinases, inhibitor after Aurora-B siRNA ([2]; Aurora-B siRNA 60 hours, then 1 µM for 12 h, SEM and TIB-202, Lane 5) | cleavage of caspase 7, time course ([3]; 1 µM) |
| --- | --- | --- | --- | --- | --- | --- | --- | --- | --- | --- | --- | --- | --- | --- | --- |
| CCS(=O)(=O)Nc1ccc2c(c1)/C(=C(/Nc1ccc(CN3CCCCC3)cc1)c1ccccc1)C(=O)N2 [Hesperadin] | 1 ± 0.5 nM | promoted dephosphorylation of Aurora-B | remained phosphorylated in all of the cell lines throughout the duration of treatment, with a slight increase in activity at 12 and 24 hours | Dephosphorylation of Aurora-B and Aurora-C was initiated at 2 hours in C1 and TIB-202 and maintained for the duration of the treatment | dephosphorylation of Aurora-B was initiated at 2 hours in SEM and KOPN8 and maintained until 24 hours | decrease in phosphorylation of Aurora-B and Aurora-C compared to silencing of Aurora-A alone | cleavage of PARP in all four cell lines starting at 12 hours | cleavage of caspase 7 beginning at 4 hours for C1 and at 12 hours for the remaining cell lines | – | – | – | – | – | – | – |
| CCN1CCN(C(=O)Cc2ccc(Nc3ncc(F)c(Nc4ccc(C(=O)Nc5ccccc5Cl)cc4)n3)cc2)CC1 [Aurora A Inhibitor I] | – | – | – | – | – | – | – | – | 3 nM | promoted dephosphorylation of Aurora-A and increased phosphorylation of Aurora-B and Aurora-C | slight increase in phosphorylation of Aurora-A at 12 and 24 hours | gradual increase in phosphorylation of Aurora-B and Aurora-C compared to vehicle control starting at 2 hours for SEM and KOPN8, 4 hours for TIB-202 and 6 hours for C1 | initial decrease, followed by a subsequent increase in phosphorylation of Aurora-A was apparent, starting at 6 hours for SEM and at 4 hours for KOPN8 and TIB-202 | decrease in phosphorylation of all three isoforms compared to treatment with Aurora A Inhibitor I alone or Aurora-B siRNA alone | cleavage of caspase 7 beginning at 4 hours for TIB-202 and at 12 hours for the remaining cell lines |
| O=C(Nc1c[nH]nc1-c1nc2ccc(CN3CCOCC3)cc2[nH]1)NC1CC1 [AT9283] | 40 ± 20 nM | – | – | – | – | – | – | – | – | – | – | – | – | – | – |
